From ChEMBL document CHEMBL5728630, “Aryl, heteroaryl, and heterocyclic pharmaceutical compounds for treatment of medical disorders” (2021)

Target: Complement factor D (Homo sapiens, UniProt P00746)
Assay: Factor D Assay: Human Factor D (purified from human serum, Complement Technology, Inc.) at 80 nM final concentration is incubated with test compound at various concentrations for 5 min at room temperature in 50 mM Tris, 1M NaCl, pH 7.5. A synthetic substrate Z-L-Lys-SBz and DTNB (Ellman's reagent) are added to final concentrations of 100 μM each. Absorbance at 405 nm (A405) is recorded at 30 second intervals for 30 min using a microplate spectrophotometer. IC50 values are calculated by nonlinear regression of complement Factor D reaction rates as a function of test compound concentration.

Complement factor D, sequence (P00746 whole entry): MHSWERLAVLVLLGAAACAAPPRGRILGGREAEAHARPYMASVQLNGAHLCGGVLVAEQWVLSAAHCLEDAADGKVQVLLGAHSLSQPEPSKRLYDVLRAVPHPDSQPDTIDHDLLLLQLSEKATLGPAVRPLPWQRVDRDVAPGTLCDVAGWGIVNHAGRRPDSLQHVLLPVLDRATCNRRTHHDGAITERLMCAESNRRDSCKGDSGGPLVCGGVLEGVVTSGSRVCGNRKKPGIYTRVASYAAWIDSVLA

Row | Structure (SMILES) | IC50 [µM]
1 | CC(=O)c1nn(CC(=O)N2[C@H](C(=O)Nc3nc(Br)ccc3C)C[C@@]3(C)C[C@@H]23)c2ccc(-c3cnc(OC4CS(=O)(=O)C4)nc3)cc12 | < 1
2 | CC(=O)c1nn(CC(=O)N2[C@H](C(=O)N[C@@H](C)c3ccccc3)C[C@@]3(C)C[C@@H]23)c2c(C)cc(-c3cnc(C)nc3)cc12 | < 1
3 | CC(=O)c1nn(CC(=O)N2[C@H](C(=O)Nc3nc(Br)ccc3C)C[C@@]3(CN4CC(F)(F)C4)C[C@@H]23)c2cnc(-c3cnc(C)nc3)cc12 | < 1
4 | CC(=O)c1nn(CC(=O)N2[C@H](C(=O)Nc3nc(Br)ccc3C)C[C@@]3(CN(C)C)C[C@@H]23)c2c(C)nc(-c3cnc(C)nc3)cc12 | < 1
5 | CC(=O)c1nn(CC(=O)N2[C@H](C(=O)Nc3nc(Br)ccc3C)C[C@@]3(/C=N/O)C[C@@H]23)c2cnc(-c3cnc(C)nc3)cc12 | < 1
6 | CC(=O)c1nn(CC(=O)N2[C@H](C(=O)Nc3nc(Br)ccc3COCCF)C[C@@]3(C)C[C@@H]23)c2cnc(-c3cnc(C)nc3)cc12 | < 1
7 | COc1ccc(CNC(=O)[C@@H]2C[C@@]3(C)C[C@H]3N2C(=O)Cn2nc(C(C)=O)c3cc(-c4cnc(C)nc4)cc(C)c32)cc1 | < 1
8 | CC(=O)c1nn(CC(=O)N2[C@H](C(=O)Nc3nc(Br)ccc3C)C[C@@]3(CN4CC(C)(C)C4)C[C@@H]23)c2c(C)nc(-c3cnc(C)nc3)cc12 | < 1
9 | CC(=O)c1nn(CC(=O)N2C[C@H](F)C[C@H]2C(=O)Nc2nc(Br)ccc2C)c2ccc(-c3cnc(OC4CS(=O)(=O)C4)nc3)cc12 | < 1
10 | CC(=O)c1nn(CC(=O)N2[C@H](C(=O)NCCCN)C[C@@]3(C)C[C@@H]23)c2ccc(-c3cnc(C)nc3)cc12 | > 10
11 | CC(=O)c1nn(CC(=O)N2[C@H](C(=O)Nc3cc(C(=O)O)cc(Br)n3)C[C@@]3(C)C[C@@H]23)c2c(CN)cc(-c3cnc(C)nc3)cc12 | < 1
12 | CCCCNC(=O)[C@@H]1C[C@@]2(C)C[C@H]2N1C(=O)Cn1nc(C(C)=O)c2cc(-c3cnc(C)nc3)cc(C)c21 | < 1
